Data set [1] is described as follows: Chromatographic hydrophobicity index (CHI) log D at pH 7.4. To be noted: reversed-phase HPLC, Acquity BEH C18 column.
Protocol: Chromatographic hydrophobicity index (CHI) log D samples (see below) were analysed using high-performance liquid chromatography (HPLC) with a Shimadzu Nexera X2 HPLC coupled to a Shimadzu SPD-30 MA photodiode array detector (PDA) (Shimadzu, Kyoto, Japan). […] The sample chamber was maintained at 25 °C. Gradient elution was performed, with mobile phase (MP) consisting of ammonium acetate in water (10 mM, pH 7.4) (MP A) and acetonitrile (MP B).
A calibration mix of ten compounds at 10 µg mL^−1 in 1:1 (v/v) water:ACN was used (theophylline, phenyltetrazole, benzimidazole, colchicine, phenyltheophilline, acetophenone, indole, propiophenone, butyrophenone and valerophenone (all Sigma-Aldrich)). Test compounds were prepared at 0.25 mM in 1:1 (v/v) water:ACN. Samples (n = 2 for calibration standards; n = 1 for test compounds) were analysed using UPLC-PDA as described above. Retention times of calibration compounds are used to calculate retention factor (k), which is plotted against literature CHI values for each compound.
Where tr is the retention time of the analyte and t0 is the retention time of an unretained compound
Calculation of chromatographic hydrophobicity index (CHI)
CHI = (𝑘 x slope) − intercept Eqn.4
Where k is the retention factor of the analyte.
Calculation of CHI Log D [1]
Where CHI is the chromatographic hydrophobicity index obtained using Equation 4
Data set [2] is described as follows: Metabolic stability, pooled human liver microsome incubations. To be noted: pHLM; vs refs 69 (AB-FUBINACA), 54 (5F-MDMB-PINACA).
For data set [3] the following is noted: HLM, ref 14 (THJ-018, THJ-2201), 15 (NNEI, MN-18), 106 (NM-2201), 107 (BIM-2201), 108 (STS-135), 16 (AB-PINACA, 5F-AB-PINACA), 54 (5F-MDMB-PINACA), 69 (AB-FUBINACA), 17 (ADB-FUBINACA), 97 (FDU-PB-22, FUB-PB-22), cited from earlier work.
Data set [4] concerns human hepatocytes (HHeps). To be noted: HHeps (asterisk); ref 13 (JWH-122, MAM-2201, Cl-, Br-, I-JWH-122), 105 (AM1220); cited from earlier work.
For data set [5] the following is noted: cited from earlier work.
Data set [6] can be described thus: Theoretical fraction unbound for hepatocytes (fuhep) from log D7.4. Details: species or system human. To be noted: calculated from experimental log D7.4 as Kilford et al. (2008), cell volume 3.9 µL/million cells. An excerpt: For all MDMB- compounds, and for most (S)-AMB-compounds differences in CLint were within 2.5-fold. […] There are multiple factors which can cause intrinsic clearance by HHeps to differ from HLM [89]. Differences may reflect the relative efficiency of transport of SCRAs and their enantiomers through cell membranes in HHeps and the relative abundance of particular enzymes in HLM and HHeps, targeting different sites of metabolism, particularly carboxylesterases. A dominance of non-CYP enzymes in metabolic clearance can result in CLint being faster in HHeps. […] Glucuronidation is therefore unlikely to cause the differences in clearance rates observed. […] CES-1 is one of the most abundant enzymes in human hepatocytes, present in the endoplasmic reticulum and to a lesser extent in the cytosol. Non-specific binding of drugs to microsomes and hepatocytes results in a lower unbound fraction available to interact with enzymes; differences in binding between HLM and HHep incubations may therefore also cause clearance differences. Non-specific binding may be estimated from log P data. Theoretical fraction unbound for microsomes (fumic) and hepatocytes (fuhep) was calculated using experimental pHLM and pHHep concentrations and incubation volumes, and experimental log D7.4 values, as described by Kilford et al. (2008) with hepatocyte cell volume as 3.9 µL/million cells. […]

Another data set is described as follows: in vitro. As to conditions: human, plasma, pH 7.4.
On the set-up of data set [7]: method as in PMID 17712819. To be noted: cited from earlier work.

Protocol for in vitro: The pooled plasma used for both plasma stability and plasma binding studies originated from 50 donors, collected as whole blood from donors in the United States at an FDA-approved collection center, processed into plasma by centrifugation and immediately frozen (Innovative Research; Novi, MI, USA) and purchased from Patricell (Nottingham, UK). […] Stock solutions were prepared in DMSO. […] For incubations without inhibitor an equivalent volume of DMSO was included. Plasma mixture was pre-incubated at 37 °C for 5 min. Test compounds (5 µM) and procaine (positive control, 50 µM) were added to pre-warmed plasma mixture containing inhibitors. Incubation volume was 1 mL. Samples were mixed and 80 µL was immediately sampled and quenched into 200 µL ACN spiked with donepezil (internal standard (IS), 50 ng mL^−1). […] Peak area ratio of analyte to IS was used to determine half-lives of test compounds in plasma, both with and without the presence of esterase inhibitors.
The human plasma used was pooled from 50 donors, and was collected as whole blood from donors in
the United States at an FDA-approved collection center, processed into plasma by centrifugation and
The stability of the tested SCRAs, select metabolites and procaine control in pooled human plasma over
inhibitors bis(4-nitrophenyl) phosphate (BNPP) and phenyl methyl sulphonyl fluoride (PMSF) is

By chromatographic logD is commonly meant a lipophilicity value derived from retention on a column. Higher therefore signals higher lipophilicity. As to `CC(C)C(NC(=O)c1nn(Cc2ccc(F)cc2)c2ccccc12)C(N)=O` (centres unmarked) [AB-FUBINACA (8), N-(1-amino-3-methyl-1-oxobutan-2-yl)-1-(4-fluorobenzyl)-1H-indazole-3-carboxamide], the chromatographic logD in data set [1] worked out at 2.81. Also, in data set [2], the “CLH prediction lower than literature prediction without PPB” value was 20 fold and the “EH prediction lower than literature prediction without PPB” value is reported as 17 fold. The CLint micr in data set [3] (95 (Cumyl-PICA, 5F-Cumyl-PICA), 73 (5F-AMB-PINACA), 109 (5F-APP-PICA, 5F-APP-PINACA, […]) is 11 µL/min/mg. In addition, the t1/2 in data set [3] (95 (Cumyl-PICA, 5F-Cumyl-PICA), 57 (AMB-4en-PICA), 73 (AMB-PINACA, 5F-AMB-PINACA), 109 (5F-APP-PICA, 5F-APP-PINACA, […]) was 62.6 min. Further, in data set [3] (57 (AMB-4en-PICA)), the CLint was 10.5 mL/min/kg.

As for `CN1CCCCC1Cn1cc(C(=O)c2cccc3ccccc23)c2ccccc21` (centres unmarked) [AM1220], in data set [4], the CLint was 169 mL/min/kg and the t1/2 is 3.7 min.

For the molecule `Cc1ccc(C(=O)c2cn(CCCCCBr)c3ccccc23)c2ccccc12` [Br-JWH-122], in data set [4], the CLint is 497 mL/min/kg and the t1/2 is listed as 2.49 min.

With `Cc1ccc(C(=O)c2cn(CCCCCCl)c3ccccc23)c2ccccc12` [Cl-JWH-122], in data set [4], the CLint is 502 mL/min/kg and the t1/2 was 2.46 min.

For the molecule `Cc1ccc(C(=O)c2cn(CCCCCI)c3ccccc23)c2ccccc12` [I-JWH-122, (1-(5-iodopentyl)-1H-indol-3-yl)(4-methylnaphthalen-1-yl)methanone], in data set [4], the CLint was 235 mL/min/kg and the t1/2 is recorded as 5.26 min.

For the molecule `CCCCCn1cc(C(=O)c2ccc(C)c3ccccc23)c2ccccc21` [JWH-122, (4-methyl-1-naphthyl)-(1-pentylindol-3-yl)methanone], in data set [4], the CLint was 1350 mL/min/kg and the t1/2 is 0.95 min.

As usually defined, the log P is the decadic logarithm of the partition coefficient of the neutral form, usually between octanol and water. Consider `CCCCCn1cc(C(=O)c2ccc(CC)c3ccccc23)c2ccccc21` [JWH-210, 4-ethylnaphthalen-1-yl-(1-pentylindol-3-yl)methanone], for which the “log P” value in data set [5] is given as 7.5.

`Cc1ccc(C(=O)c2cn(CCCCCF)c3ccccc23)c2ccccc12` [MAM-2201]: in data set [4], the CLint is 1408 mL/min/kg and the t1/2 was 0.88 min.

Take `C=CCCCn1nc(C(=O)NC(C(=O)OC)C(C)(C)C)c2ccccc21` (centres unmarked) [MDMB-4en-PINACA (5), methyl 3,3-dimethyl-2-[1-(pent-4-en-1-yl)-1H-indazole-3-carboxamido] butanoate]: the “estimated fuhep (theoretical fraction unbound for hepatocytes)” value in data set [6] is reported as 0.47. This molecule also had a chromatographic logD in data set [1] of 4.95.

As a reminder, the half-life is how long it takes for the measured level to halve. Low values mean fast loss, high ones slow loss. A word on the share remaining: it is what is left of the initial amount, in per cent. High values mean less turnover, low ones more turnover. In the data set “in vitro”, `CCN(CC)CCOC(=O)c1ccc(N)cc1` [Procaine] showed a half-life of 6.5 min, a fraction remaining at 3 h of 0.03 ± 0.02% and a fraction remaining at 5 h of 0.08%.

For the molecule `CCCCCc1cc(O)c2c(c1)OC(C)(C)[C@@H]1CCC(C)=C[C@@H]21` [THC, Δ9-tetrahydrocannabinol], the protein-bound in plasma in data set [7] is listed as 95–99%. Also, the log partition coefficient (log P) in data set [5] is given as 6.7.

Values taken from PMC7961380, “A Systematic Study of the In Vitro Pharmacokinetics and Estimated Human In Vivo Clearance of Indole and Indazole-3-Carboxamide Synthetic Cannabinoid Receptor Agonists Detected on the Illicit Drug Market” (Molecules, 2021).
